Laboratory results published in PMC10755728, “Inhibitors of the Elastase LasB for the Treatment of Pseudomonas aeruginosa Lung Infections” (ACS Central Science, 2023).
Read-outs that look alike come from different tables or passages of the source.

Legend:
LasB [1] = molecular target: T1, LasB (Pseudomonas aeruginosa, UniProt Q02RJ6); test: biochemical; format: biochemical
T1 construct: made in house

[2] = Metabolic stability in human liver S9 fraction; format: in vitro ADME
Plasma stability, mouse = format: in vitro ADME
MMP-2 = molecular target: T2, MMP-2 (Homo sapiens, UniProt P08253); test: MMP-2 inhibition assay; format: biochemical; conditions: read-out: % inhibition MMP-2
T2 construct: purchased AnaSpec (Fremont, CA, USA)
T2 sequence (P08253 110-660): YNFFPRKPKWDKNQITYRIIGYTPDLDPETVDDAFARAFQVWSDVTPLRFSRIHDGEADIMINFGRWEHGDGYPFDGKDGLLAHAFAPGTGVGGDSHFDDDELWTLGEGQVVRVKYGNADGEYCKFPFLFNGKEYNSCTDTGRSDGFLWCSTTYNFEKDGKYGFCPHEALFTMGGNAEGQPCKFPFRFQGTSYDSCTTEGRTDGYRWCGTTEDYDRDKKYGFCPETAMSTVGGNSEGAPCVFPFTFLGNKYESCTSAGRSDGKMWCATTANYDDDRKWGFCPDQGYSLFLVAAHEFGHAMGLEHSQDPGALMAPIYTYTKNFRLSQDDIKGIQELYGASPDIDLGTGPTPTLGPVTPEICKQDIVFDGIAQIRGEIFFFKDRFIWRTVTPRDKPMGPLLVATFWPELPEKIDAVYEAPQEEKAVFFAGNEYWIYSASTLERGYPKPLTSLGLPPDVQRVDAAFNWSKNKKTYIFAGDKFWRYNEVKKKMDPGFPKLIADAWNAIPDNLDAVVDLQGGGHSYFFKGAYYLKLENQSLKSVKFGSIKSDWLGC

MMP-3 = molecular target: T3, MMP-3 (Homo sapiens, UniProt P08254); test: MMP-3 inhibition assay; format: biochemical; conditions: read-out: % inhibition MMP-3
T3 construct: purchased AnaSpec (Fremont, CA, USA)
T3 sequence (P08254 100-477): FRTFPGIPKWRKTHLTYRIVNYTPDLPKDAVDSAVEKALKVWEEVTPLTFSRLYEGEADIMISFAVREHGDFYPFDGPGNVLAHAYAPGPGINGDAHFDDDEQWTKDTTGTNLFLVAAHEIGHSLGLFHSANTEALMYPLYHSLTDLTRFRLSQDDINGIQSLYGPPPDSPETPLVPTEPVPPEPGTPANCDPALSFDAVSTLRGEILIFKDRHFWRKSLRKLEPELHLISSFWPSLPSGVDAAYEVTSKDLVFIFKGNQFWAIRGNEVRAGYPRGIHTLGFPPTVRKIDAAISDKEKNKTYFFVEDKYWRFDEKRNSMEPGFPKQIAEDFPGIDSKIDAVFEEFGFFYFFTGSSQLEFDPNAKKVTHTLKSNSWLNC

TACE = molecular target: T4, TACE (Homo sapiens, UniProt P78536); test: TACE inhibitor screening kit; format: biochemical; conditions: read-out: % inhibition TACE
T4 construct: purchased Sigma-Aldrich (Saint Louis, MO)
T4 sequence (P78536 215-824): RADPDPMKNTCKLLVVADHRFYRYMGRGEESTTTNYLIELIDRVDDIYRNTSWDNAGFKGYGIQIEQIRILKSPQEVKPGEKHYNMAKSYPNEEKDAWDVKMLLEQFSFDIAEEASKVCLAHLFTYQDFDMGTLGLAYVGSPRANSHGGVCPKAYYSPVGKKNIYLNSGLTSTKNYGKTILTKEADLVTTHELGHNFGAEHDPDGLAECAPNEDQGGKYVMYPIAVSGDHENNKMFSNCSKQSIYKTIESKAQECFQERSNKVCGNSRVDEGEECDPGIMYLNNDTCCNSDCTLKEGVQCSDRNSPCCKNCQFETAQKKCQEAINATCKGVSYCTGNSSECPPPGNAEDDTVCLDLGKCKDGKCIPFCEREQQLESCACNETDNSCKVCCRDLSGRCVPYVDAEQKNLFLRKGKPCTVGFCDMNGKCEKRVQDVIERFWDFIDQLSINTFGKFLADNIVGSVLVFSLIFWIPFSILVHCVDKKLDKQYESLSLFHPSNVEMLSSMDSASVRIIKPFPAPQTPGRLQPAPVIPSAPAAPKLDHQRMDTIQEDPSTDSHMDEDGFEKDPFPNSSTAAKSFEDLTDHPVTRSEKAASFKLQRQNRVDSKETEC

COX-1 = molecular target: T5, COX-1 (Ovis aries, UniProt P05979); test: Fluorometric COX-1 inhibitor assay; format: biochemical, human
T5 construct: purchased Abcam (Cambridge, UK)
T5 sequence (P05979 25-600): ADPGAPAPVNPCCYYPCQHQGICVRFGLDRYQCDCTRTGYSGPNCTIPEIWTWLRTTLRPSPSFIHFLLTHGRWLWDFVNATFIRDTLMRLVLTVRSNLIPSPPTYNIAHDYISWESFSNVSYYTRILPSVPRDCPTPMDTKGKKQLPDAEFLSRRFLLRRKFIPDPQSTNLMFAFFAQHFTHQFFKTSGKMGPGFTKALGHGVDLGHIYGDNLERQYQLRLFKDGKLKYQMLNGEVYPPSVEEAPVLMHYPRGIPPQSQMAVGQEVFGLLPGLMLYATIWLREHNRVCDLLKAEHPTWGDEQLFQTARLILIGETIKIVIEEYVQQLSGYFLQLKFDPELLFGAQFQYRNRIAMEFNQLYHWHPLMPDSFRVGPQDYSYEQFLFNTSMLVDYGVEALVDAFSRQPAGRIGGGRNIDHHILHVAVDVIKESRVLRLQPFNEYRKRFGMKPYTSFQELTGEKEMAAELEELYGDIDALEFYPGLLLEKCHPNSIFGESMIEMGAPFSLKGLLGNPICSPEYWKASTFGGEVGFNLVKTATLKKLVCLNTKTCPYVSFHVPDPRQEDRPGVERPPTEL

ColH-PD = ColH-PD (Hathewaya histolytica, UniProt Q46085); test: biochemical; format: biochemical, Clostridium histolyticum; conditions: read-out: % inhibition ColH-PD @1 µM
Chain of ColH-PD (Q46085 331-721 limits assumed): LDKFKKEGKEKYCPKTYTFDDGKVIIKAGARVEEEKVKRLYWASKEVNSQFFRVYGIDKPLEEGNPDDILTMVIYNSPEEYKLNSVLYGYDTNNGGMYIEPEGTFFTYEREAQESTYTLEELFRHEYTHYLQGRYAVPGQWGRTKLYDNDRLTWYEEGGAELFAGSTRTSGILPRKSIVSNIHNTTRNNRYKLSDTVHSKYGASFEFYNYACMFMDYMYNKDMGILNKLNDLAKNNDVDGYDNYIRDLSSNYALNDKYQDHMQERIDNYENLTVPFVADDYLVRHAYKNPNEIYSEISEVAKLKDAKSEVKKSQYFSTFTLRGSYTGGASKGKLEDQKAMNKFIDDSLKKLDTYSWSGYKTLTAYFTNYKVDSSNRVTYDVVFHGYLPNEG

[3] = Microsomal stability, mouse liver microsomes; format: in vitro ADME; conditions: C57BL6, mouse, pooled liver microsomes
[4] = Microsomal stability, rat liver microsomes; format: in vitro ADME; conditions: Wistar, pooled liver microsomes
[5] = Microsomal stability, minipig liver microsomes; format: in vitro ADME; conditions: Göttingen, pooled liver microsomes
Plasma stability, rat = format: in vitro ADME; conditions: Wistar, pooled plasma, species profiling, read-out: Plasma T1/2 Rat (Wistar)
[6] = Plasma stability, minipig; format: in vitro ADME; conditions: Göttingen, pooled plasma, species profiling, read-out: Plasma T1/2 Minipig (Göttingen)
P. aeruginosa PA14 = test: Bacterial growth inhibition assay; format: cell-based, Pseudomonas aeruginosa
Description: Bacterial growth inhibition assay. Assays regarding the determination of the MIC were
performed as described recently for P. aeruginosa PA14.58

in vivo = conditions: mice, nebulization 10 mg/kg; for Cmax / Tmax: 10 mg/kg
Description: Up to 5 compounds were dosed per cassette.
anesthetized using ketamine 100 mg/kg and xylazine 10 mg/kg intraperitoneally.
time point) were euthanized at t= 0.5, 2 and 5 h post administration.
10 mg/kg using a Kent Scientific Aeroneb® nebulizer.
Blood was collected from the heart.
blood was collected into Eppendorf tubes coated with 0.5 M EDTA and immediately spun down
at 13,000 rpm for 10 min at 4 °C. The plasma was transferred into a new Eppendorf tube and then
stored at –80 °C until analysis. Then, a broncheoalveolar lavage was conducted using isotonic
sodium chloride solut ion. Lung, kidneys, and liver were aseptically removed and homogenized
using a Polytron tissue homogenizer (Kinematica) in isotonic sodium chloride solution.
samples were aliquoted into Eppendorf tubes and stored at –80 °C until analysis.
spontaneous urine was also collected. Bioanalytical sample preparation.
an AB Sciex QTrap6500+ mass spectrometer. First, a calibration curve was prepared by spiking
Caffeine was used as an internal standard.
min at 2,000 rpm on an Eppendorf MixMate® vortex mixer.
caffeine as internal standard for 5 min at 2000 rpm on an Eppendorf MixMate® vortex mixer.
Then samples (plasma and urine) were spun down at 1 3,000 rpm for 5 min. Supernatants were transferred to standard HPLC -glass vials.
tissue sample (calibration samples, QCs or PK samples) were extracted with 50 µL of methanol
and 1 µL caffeine (concent ration 1 µg/mL in methanol) for 5 min at 800 rpm on an Eppendorf MixMate® vortex mixer. Then samples (BALF, liver, kidney, lung) were spun down at 4,000 rpm
for 40 min at 4 °C. Supernatants were transferred to 96well V -bottom plates (Greiner).
conditions were as follows: column: Agilent Zorbax Eclipse Plus C18, 50x2.1 mm, 1.8 µm;
temperature: 30 °C; injection volume: 5 µL; flow rate: 700 µL/min; solvent A: water + 0.1%
Urea was used to enable calculation of
epithelial lining fluid (ELF) concentrations. Peak areas of each sample and of the corresponding
internal standard were analyzed using MultiQuant 3.0 software (AB Sciex).
respective sample were normalized to the internal standard peak area.
compound were used for qualification.
curve. The accuracy of the calibration curve was determined using QCs independently prepared
on different days. PK parameters were determined using a non-compartmental analysis with

LasB [7] = format: in vivo, mouse; conditions: compared to the vehicle group; 4b 10 mg/kg TID, levofloxacin 25 mg/kg
3D lung organoids = test: Lung organoid assay; format: cell-based, human
HepG2 = conditions: human, 48 h, 100 µM
Description: (§1) Culturing of HepG2, A549 and HEK293 cells. The human hepatocellular carcinoma cell line HepG2, the lung adenocarcinoma cell line A549 and Human Embryonic (HEK) 293 cells were cultured in Dulbecco's Modified Eagle Medium (DMEM), containing 10% Fetal Bovine Serum
(§2) (FBS) and 1% penicillin-streptomycin mixture. Cells were maintained according to standard cell
(§3) Cytotoxicity assay. An MTT-based assay was employed to evaluate the viability of HepG2,
(§4) HEK293 and A549 cells after challenge with selected LasB inhibitors and performed as described

HEK293 = conditions: human, 48 h, 100 µM
Description: as §1, §2, §3, §4

[8] = system: Galleria mellonella larvae infected with wt PA14; test: G. mellonella infection model
[9] = system: A549 cells treated with P. aeruginosa PAO1 and PA14 supernatants; test: A549 cells challenged with P. aeruginosa culture supernatants
Description: Cells were maintained according to standard cell
PA14 csn production. The csn of wt PA14 and ΔlasB PA14 was produced as we previously
Validation of the effect of LasB inhibitors on A549 cells in vitro. The experiment was performed
as described previously.32 The Picrosirius red assay was performed by washing the csn-challenged
cells (± inhibitor) 3x with PBS followed by an incubation with Bouin solution (Sigma) at RT for
20 min. The cells were incubated with 0.1% Picrosirius red dye (ab150681) at RT for 2 h. Then,
they were washed once with 0.01 N HCl, and the matrix was dissolved in 0.01 N NaOH. The
absorption was measured at 570 nm using a PHERAstar plate reader (BMG Labtech). By dividing
the absorbance of each sample by the absorbance of the healthy sample, the relative collagen
quantity was determined. For each condition, the experiment was performed three times. To
determine the rescue of A549 cells treated with 5% wt PA14 csn using our compounds, the LasB
inhibitors were used at 2, 0.5, 0.1 and 0.05 µM. The compounds were incubated in F12K medium,
Cell detachment was then evaluated, and a Trypan Blue cell
cells/well were seeded into a flat bottom 96-well plate (Corning™ Costar™) and incubated at 37
were tested against 10% (v/v) P. aeruginosa PAO1 csn diluted in DMEM starting from 10 µM
and 20 µM, respectively. Compound was initially dissolved in DMSO, and a low final assay
concentration of 0.5% (v/v) was applied to minimize the proteolytic effect of DMSO on the
bacterial culture supernatant. In addition, cells were challenged with 10% (v/v) of ΔlasB PAO1 to

T1 sequence (Q02RJ6 198-498): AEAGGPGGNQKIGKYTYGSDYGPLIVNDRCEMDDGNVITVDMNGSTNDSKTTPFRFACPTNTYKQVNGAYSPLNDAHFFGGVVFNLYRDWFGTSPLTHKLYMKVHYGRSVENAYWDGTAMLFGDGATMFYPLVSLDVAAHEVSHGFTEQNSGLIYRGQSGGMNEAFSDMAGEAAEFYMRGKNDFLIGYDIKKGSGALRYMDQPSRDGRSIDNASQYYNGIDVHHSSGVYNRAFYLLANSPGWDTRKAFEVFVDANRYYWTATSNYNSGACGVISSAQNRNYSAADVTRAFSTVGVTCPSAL

## CC(C)CC(C(=O)Nc1ccc(C(F)(F)F)cc1)P(=O)(O)O (stereo not shown) [Compound 4b]
LasB [1]; FRET-based assay, read-out: LasB IC50
  IC50: 26.3 ± 7.6 nM
LasB [1]; LasB IC50, FRET-based assay
  IC50: ~25 nM
LasB [1]; LasB IC50 in presence of 1% pulmonary surfactant, 1% pulmonary surfactant
  IC50: 76 ± 23 nM
[2]
  microsomal CLint at 1 μM: < 5.8 µL/min/mg
Plasma stability, mouse; C57BL6, mouse, pooled plasma, species profiling, read-out: Plasma T1/2 Mouse (C57BL6)
  half-life: > 4 h
Plasma stability, mouse; mouse plasma, read-out: Plasma T1/2 Mouse
  half-life at 1 μM: > 2.5 h
MMP-2
  inhibition at 100 µM: 25 ± 4%
MMP-3
  inhibition at 100 µM: 29 ± 8%
TACE
  inhibition at 100 µM: < 10%
COX-1
  inhibition at 100 µM: < 10%
ColH-PD
  inhibition at 1 µM: 14 ± 8%
[3]
  microsomal CLint: < 11.6 µL/min/mg
[4]
  microsomal CLint: < 11.6 µL/min/mg
[5]
  microsomal CLint: < 11.6 µL/min/mg
Plasma stability, rat
  half-life: > 4 h
[6]
  half-life: > 4 h
P. aeruginosa PA14; Pseudomonas aeruginosa, PA14, 100 µM compound concentration, read-out: Percent (%) growth inhibition of P. aeruginosa PA14
  inhibition at 100 µM: < 10%
P. aeruginosa PA14; up to 100 μM
  antibacterial activity: do not possess any antibacterial activity
In vivo; male, CD-1, mouse, ELF/plasma, inhaled, read-out: ELF/plasma ratio
  Kp: 6.12
In vivo; male, CD-1, mouse, epithelial lining fluid (ELF), inhaled or intranasal, read-out: Cmax ELF
  Cmax: 19900 ± 14000 ng/mL
In vivo; male, CD-1, mouse, epithelial lining fluid (ELF), inhaled or intranasal, read-out: Tmax ELF
  Tmax: 0.58 ± 0.4 h
In vivo; male, CD-1, mouse, epithelial lining fluid (ELF), inhaled or intranasal, read-out: AUC 0-t ELF
  AUC(0-t): 49700 ± 16200 ng·h/mL
In vivo; male, CD-1, mouse, inhaled or intranasal, plasma
  CL/F: 20.7 ± 2 mL/min/kg
In vivo; male, CD-1, mouse, lung, inhaled or intranasal, read-out: Tmax lung
  Tmax: 0.33 ± 0.1 h
In vivo; male, CD-1, mouse, plasma, inhaled or intranasal, read-out: Cmax plasma
  Cmax: 633 ± 59 ng/mL
In vivo; male, CD-1, mouse, plasma, inhaled or intranasal, read-out: Tmax plasma
  Tmax: 4 ± 3.5 h
In vivo; male, CD-1, mouse, plasma, inhaled or intranasal
  MRT: 6.8 ± 0.3 h
In vivo; male, CD-1, mouse, plasma, inhaled or intranasal, read-out: AUC 0-t plasma
  AUC(0-t): 8130 ng·h/mL
In vivo; male, CD-1, mouse, plasma, inhaled or intranasal, read-out: t1/2 plasma (converted)
  half-life: 4 ± 0.3 h
In vivo
  AUC 0-t lung: 249.0 ± 72.9 ng·h/g
  Cmax lung: 78.4 ± 15.9 ng/g
LasB [7]
  LasB protein levels in blood: strong reduction
3D lung organoids; 5% PA14 csn, 48 h, MTT
  viability of lung organoids challenged with 5% PA14 csn: improved in a dose-dependent manner
3D lung organoids; concentrations tested up to 100 μM
  toxic effects on nontreated lung organoids: did not have significant toxic effects
HepG2
  % growth inhibition HepG2: 18 ± 11%
HEK293
  % growth inhibition HEK293: 11 ± 1%
[8]; 1 nmol 4b, 10.7 nmol tobramycin, or both, 17% in the wild type
  survival of larvae infected with wt PA14: 33%
[8]; PBS with 4b, tobramycin or combination of both
  survival in the PBS treated groups (not infected): 100%
[9]; A549 cells, 15% (v/v) wt PA14 csn, 3.15 μM
  reduction of cleavage of collagen: 20%
[9]; PAO1 or PA14 csn
  LasB-related cytotoxicity in csn-treated A549 cells: dose-dependent reduction of LasB-related cytotoxicity
